Patent US7081495B1, “Cationic compounds and their use as macro molecular carriers” (School of Pharmacy, University of London, priority 1998, dated 2006)
Values joined by “and” are separate entries in the source; they are usually repeats but may differ in a detail not shown here. Identical values can stand only once. Non-standard residues stand in square brackets, D forms with d. Residues, ends and D or L forms follow the SMILES beside them. ξ: configuration not given here. *: point of attachment. X1 = NCCCC[C@H](N)C(=O)NCCCC[C@H](NC(=O)[C@@H](N)CCCCN)C(=O)*; ξGly(dodecyl) = CCCCCCCCCCCCC(N)C(=O)O

Columns and labels:
[1] = tested on: Human Embryonic Kidney (HEK) 293 cells; experiment: Transient transfection of HEK 293 cells with GABAA receptor α1 subunit cDNA; assay type: cell-based; conditions: […] compound 1a
Protocol: Human Embryonic Kidney (HEK) 293 cells were sub-cultured onto poly-L-lysine coated 35 mm petri dishes such that 24 h later the cells were still sub-confluent. Culture media was replaced on the morning of the transfection procedure. Cells were returned to the CO2—incubator ([…]/95% air) for 3 h.
Compound 1a was incubated with a GABAA receptor αl subunit cDNA-pCDM8 (Mammalian cell expression vector Thompson C. L. et al Neuroscience Let. 144 53–56 (1992)) construct (Fc2 μg/ml) in DMEM at weight ratios of 1:1, 10:1 and 100:1 (1a:α1 cDNA) for 30 minutes prior to transfection.
Cells were washed 3× with serum-free DMEM prior to application of compound 1a/GABAA receptor α subunit cDNA-vector (1ml/dish). Dishes were returned to the incubator (37° C.) for 5 h. Media was then supplemented with DMEM/10% FCS (1 ml/dish), returned to the incubator for 24 h. […]
24 h later the cells were washed 3× with phosphate-buffered saline and then fixed with methanol (−20° C., 25 min, 2 dishes from each regime) or 4% parafarmaldehyde (room temp., 15 min, 2 dishes from each regime). The cells were then processed for GABAA receptor α1 subunit-like immunoreactivity according to Thompson et al. Immunoreactivity was detected by diaminobenzidine staining and visualised under the light microscope.

[2] = In vivo distribution of 3H-dendrimer (liquid scintillation counting); parameters: species or system C57BL/6 mice
Protocol: Tritiated dendrimer synthesised as described in Example 1 above except 3H labelled BOC-lysine was prepared quantitatively from 3H-lysine purchased commercially based on the method of Keller et al Organ. Synth. 63, 160–170 (1985) (1a: Specific Activity 31Bq/ug @ 5 μg/μl in dH20) were made up to 1.2 μg/μl with 0.9% w/v sodium chloride BP. For each animal, complexes were formed at room temperature by adding 5 μg pCEP4hFIXint (as used in Example 11) in 100 μl 0.9% sodium chloride BP) dropwise to 100 μl dendrimer solution (dendrimer:DNA charge ratio about 4:1) with moderate vortexing. The complexes were then sonicated on ice with a hand-held probe at low power setting several times with three second pulses.
Male C57BL/6mice (8–10 weeks) were divided into two groups. The first group (n=8) were given approx. 150–200 μl of the complexes (exact dose determined by difference in weight of syringe pre/post injection) via tail vein injection. The second (n=4) were administered 150 μl of the complexes in a dosed food particle (isolation/observation confirmed ingestion of the food particle). At time-points 2 hours, 24 hours, 4 days, 7 days (group 1) and 24 hours, and 7 days (group 2) the mice were sacrificed and organs/fluids harvested. Blood and urine were collected when possible post mortem, the former in citrate tubes. Organs were weighed and immediately immersed in liquid nitrogen cooled isopentane to be kept at −80° C.
Organ samples for liquid scintillation counting (for detecting dendrimer) were processed as per “Packard Counting Solutions” protocol for samples <30 mg using Solvable (Packard) for all tissues except blood, urine and digestive tract tissues that were dissolved using Soluene-350 (Packard). The LSC cocktail used was Ultima Gold. Counting time was 10 minutes. Detection of episomal DNA was performed by PCR using primers that amplified a 460 bp section of the plasmid of the 3′ end of hFIX cDNA and the SV40 pA region

[3] = tested on: Rat red blood cells; experiment: RBC lysis, compound alone or complexed with pSVβgal; conditions: pSVβgal 0.0125 μg/μl, 1 hour at 37° C.
Protocol: Rat red blood cells were obtained by centrifugation of complete blood. A 2% suspension of cells was made in phosphate buffered saline. […] The lysate supernatant was recovered by centrifugation and the absorbance measured at 540 nm. (Concentration of pSVβgal was 0.0125 μg/μl).

With `CCCCCCCCCCCCC(NC(=O)C(CCCCCCCCCCCC)NC(=O)C(CCCCCCCCCCCC)NC(=O)[C@H](CCCCNC(=O)[C@H](CCCCNC(=O)[C@@H](N)CCCCN)NC(=O)[C@@H](N)CCCCN)NC(=O)[C@H](CCCCNC(=O)[C@@H](N)CCCCN)NC(=O)[C@@H](N)CCCCN)C(N)=O` (some centres unmarked) [Compound 1a] (H-KK(Lys)K(X1)[ξGly(dodecyl)][ξGly(dodecyl)][ξGly(dodecyl)]-NH2) the cell viability [1] was “deleterious to cell viability”, the “% age Total Dose, Heart” value ([2]; Oral, 24 hours) was 0.53% and the “% age Total Dose, Kidney” value ([2]; Oral, 24 hours) was 0.52% and 0.29%. For the same compound, the “% age Total Dose, Liver” value ([2]; Oral, 24 hours) was 3.70% and 1.84%, the “% age Total Dose, Lungs” value ([2]; Oral, 24 hours) was 0.78% and the “% age Total Dose, Spleen” value ([2]; Oral, 24 hours) was 0.16% and 0.13%. For the same compound, the “% age Total Dose, Urine” value ([2]; Oral, 24 hours) was 0.48% and 0.75%, the “% age Total Dose, Heart” value ([2]; i.v., 2 hours) was 0.22% and 0.06% and the “% age Total Dose, Kidney” value ([2]; i.v., 2 hours) was 0.34% and 0.48%. For the same compound, the “% age Total Dose, Liver” value ([2]; i.v., 2 hours) was 10.35% and 2.07%, the “% age Total Dose, Lungs” value ([2]; i.v., 2 hours) was 0.47% and 0.13% and the “% age Total Dose, Spleen” value ([2]; i.v., 2 hours) was 1.00% and 0.30%. For the same compound, the “Activity, Urine” value ([2]; i.v., 2 hours) was “(21 Bq/0.1 ml)”, the “% age Total Dose, Heart” value ([2]; i.v., 24 hours) was 0.80% and 4.89% and the “% age Total Dose, Kidney” value ([2]; i.v., 24 hours) was 0.57% and 1.63%. For the same compound, the “% age Total Dose, Liver” value ([2]; i.v., 24 hours) was 8.05% and 0.71%, the “% age Total Dose, Spleen” value ([2]; i.v., 24 hours) was 0.61% and 0.07% and the “% age Total Dose, Urine” value ([2]; i.v., 24 hours) was 0.52%. The “% age Total Dose, Heart” value ([2]; i.v., 4 days) was 1.48%, the “% age Total Dose, Lungs” value ([2]; i.v., 4 days) was 0.95% and the “% age Total Dose, Muscle” value ([2]; i.v., 4 days) was 0.03%. The “% age Total Dose, Spleen” value ([2]; i.v., 4 days) was 0.18%, the “% age Total Dose, Urine” value ([2]; i.v., 4 days) was 1.3% and the “% age Total Dose, Heart” value ([2]; i.v., 7 days) was 1.53%. For the same compound, the “% age Total Dose, Kidney” value ([2]; i.v., 7 days) was 0.89% and 5.68%, the “% age Total Dose, Liver” value ([2]; i.v., 7 days) was 2.91% and 6.53% and the “% age Total Dose, Lungs” value ([2]; i.v., 7 days) was 0.16%. For the same compound, the “% age Total Dose, Spleen” value ([2]; i.v., 7 days) was 0.53% and 0.51%.
In the case of `CCCCCCCCCCCCC(NC(=O)C(CCCCCCCCCCCC)NC(=O)C(CCCCCCCCCCCC)NC(=O)[C@H](CCCCNC(=O)[C@H](CCCCNC(=O)[C@H](CCCCNC(=O)[C@@H](N)CCCCN)NC(=O)[C@@H](N)CCCCN)NC(=O)[C@H](CCCCNC(=O)[C@@H](N)CCCCN)NC(=O)[C@@H](N)CCCCN)NC(=O)[C@H](CCCCNC(=O)[C@H](CCCCNC(=O)[C@@H](N)CCCCN)NC(=O)[C@@H](N)CCCCN)NC(=O)[C@H](CCCCNC(=O)[C@@H](N)CCCCN)NC(=O)[C@@H](N)CCCCN)C(N)=O` (some centres unmarked) [Compound 1b], the “effect of complexing to DNA on erythrocyte lysis” value [3] is reported as “reduces levels of erythrocyte lysis”.
